Assay results: publication PMC6201879, “N-substituted phenylbenzamides of the niclosamide chemotype attenuate obesity related changes in high fat diet fed mice” (PLoS ONE, 2018)
Where two headings read alike, the source gives them in different places.

Columns and labels:
[1] = Metabolic stability in human liver microsomes; format: in vitro ADME
Experimental: (§1) Three experiments were performed with 1) 0.5mg/ml microsomes and 1mM NADPH, 2) 0.5mg/ml microsomes without NADPH and 3) 0.5mg/ml heat inactivated microsomes without NADPH in 100mM phosphate buffer, containing 5mM magnesium chloride. […] At the indicated time points, 50μl samples were removed and stopped by addition of 4 volumes of cold acetonitrile with internal standards, 100nM alprazolam, 200nM labetalol and 2μM ketoprofen. The samples were centrifuged at 3,220 g for 40 minutes and aliquots of 100μl were subsequently diluted with 100μl of ultra-pure water and analyzed by LC/MS/MS using a (Shimadzu corporation) LC system coupled to a Shimadzu Triple Quad 5500 mass spectrometer with an ESI interface. The LC system used a Waters XSelect HSS T3 C18, 2.5μm, 2.1 x 50 mm column eluted with one of two methods using mobile phases A (water, 0.1% formic acid) and B (acetonitrile, 0.1% formic acid). […] The Shimadzu Triple Quad 5500 MS was operated with the following parameters: Ion source: Turbo spray; Ionization mode: ESI; Scan type: MRM; Collision gas: 10 L/min; Curtain gas: 30 L/min; Nebulize gas: 50 L/min; Auxiliary gas: 50 L/min; Temperature: 500°C; Ionspray voltage: +5500 V (positive MRM). All experiments were performed in duplicate. Data were analyzed using Microsoft excel, and peak areas were determined from extracted ion chromatograms.

[2] = Pharmacokinetic profile in Sprague Dawley rats (IV and PO); format: in vivo; conditions: Mean + SD (n = 3)
Experimental: To evaluate the pharmacokinetic profile by oral (PO) and intravenous (IV) administration routes we used 6 to 8-week old Sprague Dawley rats weighing approximately 200-330g (n = 3 per study group). Compounds were administered at 1mg/kg in 5% Cremophor EL and 20% PEG400 in water for IV and 5mg/kg in PBS for PO. All dose formulation was performed at room temperature. Animals were fasted overnight prior to dosing and were re-fed approximately 4 hours after dosing. For PO, 0.2ml of blood was collected pre- and 0.5, 1, 2, 4 8 12 and 24-hours after drug delivery and transferred to EDTA-K2 BD Vacutainer plastic blood collection tubes. IV samples were collected pre-injection and 0.08, 0.25, 0.5, 1, 2, 4, 8, 12, 24-hours post injection. Blood samples were centrifuged at 2,000 g for 5 minutes at 4°C to obtain plasma. Plasma samples were stored at -75±15°C prior to analysis and then thawed and analyzed by LC-MS/MS method and pharmacokinetic calculations were performed using WinNolin (Phoenix, version 6.4). For IV administration: T1/2, C0, AUClast, AUCinf, MRT, Cl, Vss, and number of points for regression were determined. For PO administration: T1/2, Cmax, Tmax, AUCinf, AUClast, F(0-∞) %, and number of points for regression were determined. Data are reported as mean and standard deviation.

[3] = system: Salmonella typhimurium TA98; assay: Ames assay, strain TA98; conditions: for Mean Revertant Colony Counts TA98 SP9+: with S9; for Mean Revertant Colony Counts TA98 S9-: without S9
[4] = system: Salmonella typhimurium TA100; conditions: for Mean Revertant Colony Counts TA-100 SP9+: with S9; for Mean Revertant Colony Counts TA-100 S9-: without S9
[5] = Metabolic stability in mouse liver microsomes; format: in vitro ADME
Experimental: as §1

[6] = system: PH5CH8 liver cells; assay: High-throughput hepatic de novo lipogenesis (DNL) assay, high content imaging of steatotic phenotype; format: cell-based, human; conditions: for IC50: Homo sapiens

CC(C)(C)c1ccc(O)c(C(=O)Nc2ccc(C(=O)O)cc2C(F)(F)F)c1 [Compound 500873, 4-[(5-tert-butyl-2-hydroxy)amido]-3-(trifluoromethyl)benzoic acid]
Remaining Percentage of 60 min (%), Human, Tested Sample ([1]; 0.5mg/ml microsomes and 1mM NADPH): 64.2%
Remaining Percentage of 60 min (%), Human, Negative Control ([1]; 0.5mg/ml microsomes without NADPH): 97.7%
Remaining Percentage of 60 min (%), Human, Heat-inactivated Control ([1]; heat inactivated microsomes without NADPH): 91.1%
AUC _%Extrap_obs (IV) ([2]; IV 1 mg/kg): 0.249 +/- 0.151%
AUCl ast/D (IV) ([2]; IV 1 mg/kg): 13000 ± 3070 ng·kg·h/mL/mg
V ss_obs ([2]; IV 1 mg/kg): 0.11 ± 0.004 L/kg
AUC _%Extrap_obs (PO) ([2]; PO 5 mg/kg in PBS): 11.14 +/- 11.6%
AUC last / D (PO) ([2]; PO 5 mg/kg in PBS): 1290 ± 817 ng·kg·h/mL/mg
C max ([2]; PO 5 mg/kg in PBS, 5 mg/kg): 912.33 ± 856 ng/mL
F (oral bioavailability) ([2]; PO 5 mg/kg vs IV 1 mg/kg): 10.20 +/-6.3%
half-life ([2]; Sprague Dawley, rat, plasma, iv, 1 mg/kg, IV 1 mg/kg, read-out: T 1/2 (IV) (converted)): 2.87 ± 0.86 h
Cmax ([2]; Sprague Dawley, rat, plasma, po, 5 mg/kg, PO 5 mg/kg in PBS): 912 ng/mL
bioavailability ([2]; Sprague Dawley, rat, plasma, po, 5 mg/kg, PO 5 mg/kg vs IV 1 mg/kg, read-out: F (oral bioavailability)): 10%
C0 ([2]; rat, plasma, IV 1 mg/kg): 24100 ± 4000 ng/mL
AUC(0-inf) ([2]; rat, plasma, IV 1 mg/kg, read-out: AUC Inf (IV)): 13000 ± 3070 ng·h/mL
AUC(0-t) ([2]; rat, plasma, IV 1 mg/kg, read-out: AUC last (IV)): 13000 ± 3070 ng·h/mL
clearance ([2]; rat, plasma, IV 1 mg/kg, read-out: Cl_obs): 1.33 ± 0.31 mL/min/kg
MRT inf ([2]; rat, plasma, IV 1 mg/kg, read-out: MRT Inf_obs (IV)): 1.42 ± 0.29 h
Tmax ([2]; rat, plasma, PO 5 mg/kg in PBS): 3.33 ± 1.15 h
AUC(0-inf) ([2]; rat, plasma, PO 5 mg/kg in PBS, read-out: AUC Inf (PO)): 6950 ± 3680 ng·h/mL
AUC(0-t) ([2]; rat, plasma, PO 5 mg/kg in PBS, read-out: AUC last (PO)): 6430 ± 4080 ng·h/mL
MRT inf ([2]; rat, plasma, PO 5 mg/kg in PBS, read-out: MRT Inf_obs (PO)): 10 ± 5.6 h
Mean Revertant Colony Counts TA98 SP9+ ([3]; 1.5 ug/Well): 5.7
Mean Revertant Colony Counts TA98 S9- ([3]; 1.5 ug/Well): 5.0
Mean Revertant Colony Counts TA98 SP9+ ([3]; 4 ug/Well): 6.0
Mean Revertant Colony Counts TA98 S9- ([3]; 4 ug/Well): 9.0
Mean Revertant Colony Counts TA98 SP9+ ([3]; 10 ug/Well): 6.3
Mean Revertant Colony Counts TA98 S9- ([3]; 10 ug/Well): 4.0
Mean Revertant Colony Counts TA98 SP9+ ([3]; 25 ug/Well): 9.3
Mean Revertant Colony Counts TA98 S9- ([3]; 25 ug/Well): 7.7
Mean Revertant Colony Counts TA98 SP9+ ([3]; 64 ug/Well): 8.3
Mean Revertant Colony Counts TA98 S9- ([3]; 64 ug/Well): 11.7
Mean Revertant Colony Counts TA98 SP9+ ([3]; 160 ug/Well): 10.3
Mean Revertant Colony Counts TA98 S9- ([3]; 160 ug/Well): 10.0
Mean Revertant Colony Counts TA98 SP9+ ([3]; 400 ug/Well): 14.0
Mean Revertant Colony Counts TA98 S9- ([3]; 400 ug/Well): 11.7
Mean Revertant Colony Counts TA98 SP9+ ([3]; 1000 ug/Well): 16.3
Mean Revertant Colony Counts TA98 S9- ([3]; 1000 ug/Well): 14.0
fold increase in revertant colonies, TA98 ([3]; 1000 μg/well in the absence of S9 mix): ≥ 2 fold
Mean Revertant Colony Counts TA-100 SP9+ ([4]; 1.5 ug/Well): 22.3
Mean Revertant Colony Counts TA-100 S9- ([4]; 1.5 ug/Well): 33.0
Mean Revertant Colony Counts TA-100 SP9+ ([4]; 4 ug/Well): 18.3
Mean Revertant Colony Counts TA-100 S9- ([4]; 4 ug/Well): 31.7
Mean Revertant Colony Counts TA-100 SP9+ ([4]; 10 ug/Well): 20.7
Mean Revertant Colony Counts TA-100 S9- ([4]; 10 ug/Well): 28.3
Mean Revertant Colony Counts TA-100 SP9+ ([4]; 25 ug/Well): 16.7
Mean Revertant Colony Counts TA-100 S9- ([4]; 25 ug/Well): 25.0
Mean Revertant Colony Counts TA-100 SP9+ ([4]; 64 ug/Well): 18.3
Mean Revertant Colony Counts TA-100 S9- ([4]; 64 ug/Well): 28.7
Mean Revertant Colony Counts TA-100 SP9+ ([4]; 160 ug/Well): 22.7
Mean Revertant Colony Counts TA-100 S9- ([4]; 160 ug/Well): 25.0
Mean Revertant Colony Counts TA-100 SP9+ ([4]; 400 ug/Well): 17.7
Mean Revertant Colony Counts TA-100 S9- ([4]; 400 ug/Well): 21.0
fold increase in the mean number of revertant colonies, TA100 ([4]; any concentration tested, vs negative control): < 2 fold
Remaining Percentage of 60 min (%), Mouse, Tested Sample ([5]; 0.5mg/ml microsomes and 1mM NADPH, 60 min): 107.5%
Remaining Percentage of 60 min (%), Mouse, Negative Control ([5]; 0.5mg/ml microsomes without NADPH, 60 min): 106.4%
stability in MLM ([5]; 60 minutes): stable
Remaining Percentage of 60 min (%), Mouse, Heat-inactivated Control ([5]; heat inactivated microsomes without NADPH, 60 min): 105.5%
IC50 ([6]; PH5CH8 liver cells, 10-point dose response between 1μM and 1.9nM, read-out: IC50 (uM), inhibition of steatotic phenotype in DNL assay): 0.005 µM
IC50 ([6]; S1 Table, SAR for N-Substituted Phenylbenzamides, read-out: IC50): 0.0046 µM
Active/Inactive ([6]; S1 Table, SAR for N-Substituted Phenylbenzamides): Active
